From publication PMC11984586, “A novel spider toxin as a selective antagonist of the Kv1 subfamily of voltage-gated potassium channels through gating modulation” (The Journal of Biological Chemistry, 2025)
Bridge positions count the residues as written; N and C are the ends. Peptide text beside a SMILES is read from it.

Assays:
Kv1.3 E349A mutant = test: Whole-cell patch clamp, Kv1.3 alanine mutant; format: cell-based, human; conditions: 100 nM MrVIII, +30 mV; n = 4–7
Protocol: (§1) MrVIII inhibits Kv1 channels by stabilizing the voltage sensor in its resting state. […] To investigate this hypothesis, we constructed a series of alanine mutants in the S3-S4 region of the Kv1.3 channel, covering residues I336 to L363, to identify critical interactions between the peptide and the channel (Fig. 6A). […] For the remaining mutants that retained functional current expression, we evaluated the inhibitory activity of 100 nM MrVIII. […] The lack of conserved multiple interaction sites may explain the absence of activity on other Kv subfamily channels (Fig. S3). In summary, this study identified key amino acid residues in the S3-S4 region of the Kv1.3 channel that interact with MrVIII, providing a foundation for further exploration into the peptide's mechanism of action.
(§2) The cDNA of hKv1.1, hKv1.2, hKv1.3, rKv1.4, hKv1.5, mKv1.6, and hKv1.7 were subcloned into mammalian expression vectors pcDNA3.1 or pCMV-blank vectors, as well as other plasmids described previously ([35]). Channel mutants were generated by site-directed mutations. Briefly, the parental channel plasmid was amplified using a pair of oppositely directed primers harboring the designed mutation site, with KOD Fx (TOYOBO Co, Ltd). The resulting PCR mix was treated with FastDigest DpnI (Thermo Fisher Scientific) to remove the methylated template. Ten microliters of the digested product was then used to transform 100 μl E. coli DH5α competent cells. Transformants were randomly picked and sequenced to confirm the presence of the intended mutation.
(§3) CHO-K1 cells were selected for expressing Kv channels due to their lack of endogenous Kv channels, while HEK293 or ND7/23 cells were used for Nav and Cav channel expression. CHO-K1 cells were cultured in a Dulbecco's modified Eagle's medium/Ham's F-12 nutrient mixture (DMEM-F12) medium, and HEK293T and ND7/23 cells in DMEM medium, all supplemented with 10% fetal bovine serum and 1% penicillin-streptomycin (all from Gibco, Thermo Fisher Scientific, Inc) under standard conditions (37 °C, 5% CO2, and saturated humidity). These cell lines were purchased from Stem Cell Bank, Chinese Academy of Sciences. Channel plasmids were cotransfected with pEGFP-N1 (encoding GFP) into the respective cells using lipofectamine 2000, following the manufacturer's instructions (Invitrogen, Thermo Fisher Scientific, Inc.). Nav1.9-GFP plasmid was transfected into ND7/23 using the X-tremeGENE HP DNA Transfection Reagent (Roche). After 4 to 6 h transfection, cells were seeded onto poly-lysine–coated coverslips, and 24 to 36 h later, transfected cells were ready for patch-clamp analysis.
(§4) Patch clamp experiments were conducted using an electrophysiology platform comprising a MultiClamp 700B amplifier and an Axon Digidata 1550 AD/DA convertor (Axon Instruments). Data acquisition was performed with pClamp 10.5 software (Axon Instruments). All experiments were performed at room temperature.
(§5) For Kv current recordings, the bath solution contained (in mM) the following: 140 NaCl, 5 KCl, 1 MgCl2, 2 CaCl2, 10 glucose, and 10 Hepes (pH 7.3, adjusted with NaOH), and the pipette solution contained (in mM) the following: 140 KCl, 2.5 MgCl2, 11 EGTA, and 10 Hepes (pH 7.3, adjusted with KOH). Series resistance was maintained below 10 MΩ and compensated to 80%. Concentration–response curves were fitted by the Hill equation to determine the toxin's potency. Whole cell conductance (G) at each depolarizing voltage (V) was determined using the equation: G = I/(V−Vrev), where I is the current amplitude, and Vrev is the reversal potential. The reversal potential for K^+ current was estimated to be −85.6 mV using the Nernst equation. G-V curves were obtained by plotting the normalized conductance as a function of V and fitted by the Boltzmann equation: y = 1/(1+ exp((Va-V)/k)), which Va is the midpoint voltage, V is the test potential, and k is the slope factor. The steady-state fast inactivation of Kv1.3 was measured using a two-pulses protocol. […]

Kv1.3 G344A mutant = test: Whole-cell patch clamp, Kv1.3 alanine mutant; format: cell-based, human; conditions: 100 nM MrVIII, +30 mV; n = 4–7
Protocol: as §1, §2, §3, §4, §5

Kv1.3 Q355A mutant = test: Whole-cell patch clamp, Kv1.3 alanine mutant; format: cell-based, human; conditions: 100 nM MrVIII, +30 mV; n = 4–7
Protocol: as §1, §2, §3, §4, §5

Kv1.3 S359A mutant = test: Whole-cell patch clamp, Kv1.3 alanine mutant; format: cell-based, human; conditions: 100 nM MrVIII, +30 mV; n = 4–7
Protocol: as §1, §2, §3, §4, §5

Kv1.3 T345A mutant = test: Whole-cell patch clamp, Kv1.3 alanine mutant; format: cell-based, human; conditions: 100 nM MrVIII, +30 mV; n = 4–7
Protocol: as §1, §2, §3, §4, §5

Kv1.3/Y339A = test: Whole-cell patch clamp, Kv1.3 alanine mutant; format: cell-based, human
Protocol: as §1, §2, §3, §4, §5

Kv1.4/Y416A = test: Whole-cell patch clamp, Tyr-to-Ala mutant homologous to Kv1.3 Y339; format: cell-based, rat; conditions: 10 μM MrVIII, +30 mV, 500 ms, holding −80 mV, mean ± SD, n = 4–6
From the text: Building on the identification of key amino acid residues in Kv1.3 channel that interact with MrVIII through alanine-scanning mutagenesis, we extended our analysis to explore these residues across other Kv1 subfamily channels. […] However, MrVIII retained substantial inhibitory potency on Kv1.2/Y266A mutant, albeit without fully blocking the channel current. […] The profound reduction in MrVIII's effect across homologous mutants supports the idea that it binds to a conserved region.
as §2, with “Ten microliters of the digested product was then used to transform 100 μl E. coli DH5α competent cells. Transformants were randomly picked and sequenced to confirm the presence of the intended mutation.” left out
CHO-K1 cells were selected for expressing Kv channels due to their lack of endogenous Kv channels, while HEK293 or ND7/23 cells were used for Nav and Cav channel expression. […] After 4 to 6 h transfection, cells were seeded onto poly-lysine–coated coverslips, and 24 to 36 h later, transfected cells were ready for patch-clamp analysis. […]

Structure (SMILES): CC[C@H](C)[C@@H]1NC(=O)[C@H](Cc2ccc(O)cc2)NC(=O)[C@H](CCC(N)=O)NC(=O)[C@@H]2CCCN2C(=O)[C@@H]2CSSC[C@H](NC(=O)[C@H](C)NC(=O)[C@H](CO)NC(=O)[C@H](CCC(=O)O)NC(=O)[C@H](CCC(=O)O)NC(=O)[C@@H](N)[C@@H](C)O)C(=O)NCC(=O)NCC(=O)N[C@@H](Cc3ccccc3)C(=O)N[C@@H](CC(N)=O)C(=O)N[C@@H](C)C(=O)N[C@@H](CCCNC(=N)N)C(=O)N[C@H]3CSSC[C@H](NC1=O)C(=O)N[C@@H](CCCCN)C(=O)NCC(=O)N[C@@H](Cc1c[nH]c4ccccc14)C(=O)N[C@@H](CCCNC(=N)N)C(=O)N[C@@H]([C@@H](C)O)C(=O)N[C@@H](CCCCN)C(=O)N[C@@H](CCCNC(=N)N)C(=O)N[C@H](C(=O)N[C@@H](CC(C)C)C(=O)N[C@@H](CC(N)=O)C(=O)N1CCC[C@H]1C(=O)O)CSSC[C@H](NC(=O)[C@H](CCCCN)NC(=O)[C@H](Cc1c[nH]cn1)NC(=O)[C@H](CC(C)C)NC(=O)[C@@H]1CCCN1C3=O)C(=O)N2 [MrVIII] (H-TEESACGGFNARCPLHKCCPQYICKGWRTKRCLNP-OH; disulfide 6-19, 13-24, 18-32; N-terminus and C-terminus assumed)
- reduction in inhibitory potency vs WT Kv1.3, E349A (Kv1.3 E349A mutant): more than 5 fold
- reduction in inhibitory potency vs WT Kv1.3, G344A (Kv1.3 G344A mutant): more than 5 fold
- reduction in inhibitory potency vs WT Kv1.3, Q355A (Kv1.3 Q355A mutant): more than 5 fold
- reduction in inhibitory potency vs WT Kv1.3, S359A (Kv1.3 S359A mutant): more than 5 fold
- reduction in inhibitory potency vs WT Kv1.3, T345A (Kv1.3 T345A mutant): more than 5 fold
- decrease of inhibitory potency vs WT Kv1.3, Y339A (Kv1.3/Y339A; 100 nM MrVIII on mutant compared with 10 nM on WT Kv1.3, +30 mV, n = 4–7): more than 10 fold
- inhibition of peak current of Kv1.3/Y339A (Kv1.3/Y339A; 10 μM MrVIII, +30 mV, mean ± SD, n = 4–6, SD): 24.9 ± 6.0%
- inhibition of Kv1.4/Y416A current (Kv1.4/Y416A): 63.5 ± 18.4%
